Experimental data: patent US20230203081A1, “LINCOSAMIDE ANTIBIOTICS AND USES THEREOF” (President and Fellows of Harvard College, priority 2020, published 2023)
Values after ≈ are worked out from the molar mass of the structure shown. Read-outs that look alike come from different tables or passages of the source.

Key:
Type in all cases: cell-based
E. faecalis ATCC 29212 = experiment: MIC (broth microdilution or agar dilution, CLSI); conditions: Enterococcus faecalis, read-out: MIC
Procedure: (§1) Minimum inhibitory concentrations (MICs) were determined by broth microdilution method or agar dilution method following the Clinical and Laboratory Standards Institute guidelines. Standard bacterial strains were obtained from American Type Culture Collection (ATCC). Other bacterial strains were obtained from hospitals and commercial sources, so noted in Table 11. […] Specialized procedures were employed for streptococcal and anaerobic strains. All other bacterial strains were sub-cultured on blood agar plates (tryptic soy agar with 5% sheep blood, Hardy Diagnostics) and incubated overnight at 35° C. […] Suspensions were further diluted to obtain a final inoculum of 5×10^5 CFU/mL for broth microdilution experiments.

S. pyogenes ATCC 19615 = experiment: MIC (broth microdilution or agar dilution, CLSI); conditions: Streptococcus pyogenes, read-out: MIC
Procedure: as §1

K. oxytoca Clinical = experiment: MIC (broth microdilution or agar dilution, CLSI); conditions: Klebsiella oxytoca, read-out: MIC
Procedure: as §1

E. coli ATCC 25922 = experiment: MIC (broth microdilution or agar dilution, CLSI); conditions: Escherichia coli, ATCC25922, read-out: MIC
Procedure: as §1

E. coli LptD = experiment: MIC (broth microdilution or agar dilution, CLSI); conditions: Escherichia coli, read-out: MIC
Procedure: as §1

S. aureus ATCC 29213 = experiment: MIC (broth microdilution or agar dilution, CLSI); conditions: Staphylococcus aureus, read-out: MIC
Procedure: as §1

S. pneumoniae ATCC 49619 = experiment: MIC (broth microdilution or agar dilution, CLSI); conditions: Streptococcus pneumoniae, read-out: MIC
Procedure: as §1

E. coli ΔTolC = experiment: microbe, parasite or virus in culture; conditions: Escherichia coli
Procedure: as §1

E. faecium Clinical VRE = experiment: MIC (broth microdilution or agar dilution, CLSI); conditions: Enterococcus faecium; E. faecium Clinical VRE; read-out: MIC
Procedure: (§2) Minimum inhibitory concentrations (MICs) were determined by broth microdilution method or agar dilution method following the Clinical and Laboratory Standards Institute guidelines. Standard bacterial strains were obtained from American Type Culture Collection (ATCC). Other bacterial strains were obtained from hospitals and commercial sources, so noted in Table 11. Before the start of the MIC experiment, standard and test compound stock solutions were prepared in dimethyl sulfoxide (DMSO, Aldrich D2650) at a stock concentration of 5,120 μg/mL. The compound concentration range typically employed for each experiment was 128-0.06 μg/mL (2.5% final DMSO concentration). Clindamycin was used as a comparator in all experiments and each experiment was performed in triplicate. Specialized procedures were employed for streptococcal and anaerobic strains. All other bacterial strains were sub-cultured on blood agar plates (tryptic soy agar with 5% sheep blood, Hardy Diagnostics) and incubated overnight at 35° C. Organisms were suspended in cation-adjusted Mueller-Hinton broth (CaMHB, BD 212322) and optical density was adjusted to 0.5 McFarland standard. Suspensions were further diluted to obtain a final inoculum of 5×10^5 CFU/mL for broth microdilution experiments.

S. aureus cErmA = experiment: MIC (broth microdilution or agar dilution, CLSI); conditions: Staphylococcus aureus; S. aureus cErmA; read-out: MIC
Procedure: as §2

[1] = tested on: S. aureus ATCC BAA-1707 (MRSA); experiment: MIC (broth microdilution or agar dilution, CLSI); conditions: Staphylococcus aureus; S. aureus HAV#016, ATCC BAA-1707; MRSA; read-out: MIC
Procedure: as §1

[2] = tested on: broad panel of different clinical isolates; experiment: microbe, parasite or virus in culture
Procedure: as §1

S. aureus BAA 977 iErmA = experiment: microbe, parasite or virus in culture; conditions: Staphylococcus aureus, BAA-977 / MRSA
Procedure: as §1

S. aureus MMX 3035 cErmA = experiment: MIC (broth microdilution or agar dilution, CLSI); conditions: Staphylococcus aureus, MMX3035CERMA; S. aureus HAV#031, MMX 3035; cErmA; read-out: MIC
Procedure: as §1

[3] = ATCC29212, E. faecalis ATCC 29212
[4] = ATCC19615, S. pyogenes ATCC 19615
[5] = ATCC29213, S. aureus ATCC 29213
[6] = ATCC49619, S. pneumoniae ATCC 49619
[7] = ATCC29212, E. faecalis HAV#005, ATCC 29212
[8] = ATCC19615, S. pyogenes HAV#004, ATCC 19615
[9] = ATCC29213, S. aureus HAV#001, ATCC 29213, MP-549
[10] = ATCC49619, S. pneumoniae HAV#003, ATCC 49619
[11] = Enterococcus faecium, VRE, E. faecium HAV#326, Clinical

| Compound | MIC (E. faecalis ATCC 29212; [3]) [µg/mL] | MIC (S. pyogenes ATCC 19615; [4]) [µg/mL] | MIC (K. oxytoca Clinical; K. oxytoca Clinical) [µg/mL] | MIC (E. coli ATCC 25922; E. coli ATCC 25922) [µg/mL] | MIC (E. coli LptD; E. coli LptD) [µg/mL] | MIC (S. aureus ATCC 29213; [5]) [µg/mL] | MIC (S. pneumoniae ATCC 49619; [6]) [µg/mL] | MIC (E. coli ΔTolC; E. coli ΔTolC) [µg/mL] | MIC (E. faecium Clinical VRE) [µg/mL] | MIC (S. aureus cErmA) [µg/mL] | MIC [1] [µg/mL] | MIC (E. faecalis ATCC 29212; [7]) [µg/mL] | MIC (S. pyogenes ATCC 19615; [8]) [µg/mL] | MIC (K. oxytoca Clinical; K. oxytoca HAV#450, Clinical) [µg/mL] | MIC (E. coli ATCC 25922; E. coli HAV#006, ATCC 25922) [µg/mL] | MIC (E. coli LptD; E. coli HAV#040, LptD) [µg/mL] | MIC (S. aureus ATCC 29213; [9]) [µg/mL] | MIC (S. pneumoniae ATCC 49619; [10]) [µg/mL] | MIC [2, 11] [µg/mL] | MIC (E. coli ΔTolC; E. coli HAV#038, ΔTolC) [µg/mL] | also measured |
| --- | --- | --- | --- | --- | --- | --- | --- | --- | --- | --- | --- | --- | --- | --- | --- | --- | --- | --- | --- | --- | --- |
| CSC1O[C@H]([C@H](NC(=O)[C@H]2NC[C@@H]3C[C@H](CCCF)CCO[C@H]32)[C@H](C)Cl)C(O)C(O)[C@H]1O (some centres unmarked) [FSA-12-03-035] | 0.25 (≈ 0.501 µM) | 0.06 (≈ 0.12 µM) | 4 (≈ 8.02 µM) | 8 (≈ 16 µM) | 4 (≈ 8.02 µM) | 0.125 (≈ 0.25 µM) | 0.06 (≈ 0.12 µM) | 4 (≈ 8.02 µM) | 4 (≈ 8.02 µM) | 8 (≈ 16 µM) | – | – | – | – | – | – | – | – | – | – | – |
| CSC1O[C@H]([C@H](NC(=O)[C@H]2NC[C@@H]3C[C@H](CCCCl)CCO[C@H]32)[C@H](C)Cl)C(O)C(O)[C@H]1O (some centres unmarked) [FSA-12-03-042] | 0.125 (≈ 0.242 µM) | 0.06 (≈ 0.116 µM) | 8 (≈ 15.5 µM) | 8 (≈ 15.5 µM) | 2 (≈ 3.88 µM) | 0.125 (≈ 0.242 µM) | 0.06 (≈ 0.116 µM) | 0.5 (≈ 0.97 µM) | 4 (≈ 7.76 µM) | 16 (≈ 31 µM) | – | – | – | – | – | – | – | – | – | – | – |
| CSC1O[C@H]([C@H](NC(=O)[C@H]2NC[C@@H]3C[C@H](CCC(F)F)CCO[C@H]32)[C@H](C)Cl)C(O)C(O)[C@H]1O (some centres unmarked) [FSA-12-03-055] | 0.25 (≈ 0.484 µM) | 0.06 (≈ 0.116 µM) | 16 (≈ 30.9 µM) | 16 (≈ 30.9 µM) | 4 (≈ 7.74 µM) | 0.125 (≈ 0.242 µM) | 0.06 (≈ 0.116 µM) | 1 (≈ 1.93 µM) | 8 (≈ 15.5 µM) | 16 (≈ 30.9 µM) | – | – | – | – | – | – | – | – | – | – | – |
| CCC[C@@H]1C[C@@H](C(=O)N[C@@H]([C@H]2O[C@H](SC)[C@H](O)[C@@H](O)[C@H]2O)[C@@H](C)O)N(C)C1 [Lincomycin] | – | – | – | – | – | – | – | – | – | – | 0.25 (≈ 0.615 µM) | 32 (≈ 78.7 µM) | 0.5 (≈ 1.23 µM) | > 256 | > 256 | 64 (≈ 157 µM) | 0.5 (≈ 1.23 µM) | 1 (≈ 2.46 µM) | 16 (≈ 39.4 µM) | 128 (≈ 315 µM) | – |
| CN(C)c1ccc(O)c2c1C[C@H]1C[C@H]3[C@H](N(C)C)C(O)=C(C(N)=O)C(=O)[C@@]3(O)C(O)=C1C2=O [Minocycline] | – | – | – | – | – | – | – | – | – | – | 0.25 (≈ 0.546 µM) | 4 (≈ 8.74 µM) | – | – | 0.5 (≈ 1.09 µM) | 0.25 (≈ 0.546 µM) | 0.25 (≈ 0.546 µM) | – | 0.125 (≈ 0.273 µM) | ≤ 0.0125 | MIC (S. aureus BAA 977 iErmA): 0.25 µg/mL (≈ 0.546 µM) |
| CS(=O)(=O)c1ccc([C@@H](O)[C@@H](CO)NC(=O)C(Cl)Cl)cc1 [Thiamphenicol] | – | – | – | – | – | – | – | – | – | – | – | 16 (≈ 44.9 µM) | 4 (≈ 11.2 µM) | 64 (≈ 180 µM) | 64 (≈ 180 µM) | 32 (≈ 89.8 µM) | 32 (≈ 89.8 µM) | 2 (≈ 5.61 µM) | – | 16 (≈ 44.9 µM) | MIC (S. aureus MMX 3035 cErmA): 32 µg/mL (≈ 89.8 µM); MIC ([2]; Enterococcus faecalis, VRE, E. faecalis HAV#251, Clinical VRE): 8 µg/mL (≈ 22.5 µM); MIC ([2]; Klebsiella pneumoniae, K. pneumoniae HAV#041, Clinical, KPC): > 64 µg/mL |
